Values quoted from earlier work in patent US20240016826A1, “COMPOSITION, PHARMACEUTICAL COMPOSITION, USE OF A STABLE TOPICAL COMPOSITION COMPRISING A NANOEMULSION AND OF AT LEAST ONE ANTILEISHMANIAL COMPOUND, AND METHOD FOR THE TREATMENT OF CUTANEOUS LEISHMANIASIS” (priority 2020, published 2024).

System: L. (L.) major
Settings: Old World patients, cutaneous leishmaniasis due to L. (L.) major (MOHEBALI et al., 2007)

Compound: CCCCCCCCCCCCCCCCOP(=O)([O-])OCC[N+](C)(C)C [miltefosine, hexadecylphosphocholine]
- cure rate: 93%
